Data on one molecule can be found in US8629173B2, “Solid forms comprising (+)-2-[1-(3-ethoxy-4-methoxyphenyl)-2-methylsulfonylethyl]-4-acetylaminoisoindoline-1,3-dione, compositions thereof, and uses thereof” (Celgene Corporation, priority 2002, dated 2014).

Assay [1] relates to PDE4 (from U937 cells). Briefly: PDE4 (U937 cell-derived) enzyme assay. The conditions noted are these: 1 μM cAMP. It counts as biochemical, human.
For assay [2], the system named is bovine PDE1. Briefly: PDE1 enzyme assay. It counts as biochemical.
The target in assay [3] is human PDE2 (Homo sapiens, UniProt O00408). Briefly: PDE2 enzyme assay. It counts as biochemical.
Sequence of human PDE2 (O00408 whole entry): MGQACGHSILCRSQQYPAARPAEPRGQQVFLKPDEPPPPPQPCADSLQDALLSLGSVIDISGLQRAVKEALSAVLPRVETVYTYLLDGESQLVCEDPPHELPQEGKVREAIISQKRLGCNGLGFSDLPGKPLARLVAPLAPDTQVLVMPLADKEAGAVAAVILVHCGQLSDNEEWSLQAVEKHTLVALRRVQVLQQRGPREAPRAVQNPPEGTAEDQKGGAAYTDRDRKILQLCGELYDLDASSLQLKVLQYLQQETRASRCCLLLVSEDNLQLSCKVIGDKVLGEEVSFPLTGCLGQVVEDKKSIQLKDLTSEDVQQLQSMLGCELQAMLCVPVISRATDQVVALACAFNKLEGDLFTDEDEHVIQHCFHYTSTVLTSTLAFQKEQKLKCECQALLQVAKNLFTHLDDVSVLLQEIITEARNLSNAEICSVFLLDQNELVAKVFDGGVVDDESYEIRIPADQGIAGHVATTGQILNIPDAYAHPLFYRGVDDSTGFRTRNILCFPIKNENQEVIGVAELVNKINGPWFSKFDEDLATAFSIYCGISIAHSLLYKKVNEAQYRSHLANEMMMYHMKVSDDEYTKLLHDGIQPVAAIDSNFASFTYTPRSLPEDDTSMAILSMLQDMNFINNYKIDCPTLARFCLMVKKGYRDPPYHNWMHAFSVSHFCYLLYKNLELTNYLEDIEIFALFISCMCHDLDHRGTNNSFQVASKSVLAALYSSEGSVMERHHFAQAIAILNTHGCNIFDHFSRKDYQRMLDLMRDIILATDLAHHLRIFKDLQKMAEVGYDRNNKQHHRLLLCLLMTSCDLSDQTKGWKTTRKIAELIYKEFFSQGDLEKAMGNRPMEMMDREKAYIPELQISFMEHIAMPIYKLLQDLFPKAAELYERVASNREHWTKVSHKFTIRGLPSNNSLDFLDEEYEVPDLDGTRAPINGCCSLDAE
Assay [4] concerns the target T1, PDE6 from bovine retinal rod outer segments (Bos taurus, UniProt P11541+P23439).
T1 construct: PDE6 from bovine retinal rod outer segments; from tissue; host or cells: bovine retinal rod outer segments
T1 sequence (P11541 2-856 limits assumed): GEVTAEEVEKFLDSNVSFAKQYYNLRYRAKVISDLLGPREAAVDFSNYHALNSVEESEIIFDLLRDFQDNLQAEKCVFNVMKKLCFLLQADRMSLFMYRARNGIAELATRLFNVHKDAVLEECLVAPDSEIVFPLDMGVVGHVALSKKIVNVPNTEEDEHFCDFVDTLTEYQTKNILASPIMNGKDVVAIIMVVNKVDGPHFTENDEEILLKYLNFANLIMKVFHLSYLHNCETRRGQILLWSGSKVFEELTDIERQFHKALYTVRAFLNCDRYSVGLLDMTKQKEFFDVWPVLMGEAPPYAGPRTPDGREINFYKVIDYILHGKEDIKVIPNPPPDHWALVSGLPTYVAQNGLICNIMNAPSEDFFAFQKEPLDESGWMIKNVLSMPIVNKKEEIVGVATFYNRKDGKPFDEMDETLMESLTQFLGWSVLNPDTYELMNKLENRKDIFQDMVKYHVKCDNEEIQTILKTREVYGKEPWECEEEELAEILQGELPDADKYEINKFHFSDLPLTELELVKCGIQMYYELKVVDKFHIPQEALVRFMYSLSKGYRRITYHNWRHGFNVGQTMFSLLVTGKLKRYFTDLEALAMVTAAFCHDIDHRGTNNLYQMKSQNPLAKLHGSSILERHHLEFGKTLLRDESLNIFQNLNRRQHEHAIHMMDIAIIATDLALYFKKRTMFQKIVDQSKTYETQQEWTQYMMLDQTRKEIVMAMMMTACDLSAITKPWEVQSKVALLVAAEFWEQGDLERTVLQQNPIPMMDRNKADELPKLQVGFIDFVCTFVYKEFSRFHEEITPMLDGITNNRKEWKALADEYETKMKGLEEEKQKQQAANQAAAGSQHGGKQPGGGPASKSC
T1 sequence (P23439 2-850 limits assumed): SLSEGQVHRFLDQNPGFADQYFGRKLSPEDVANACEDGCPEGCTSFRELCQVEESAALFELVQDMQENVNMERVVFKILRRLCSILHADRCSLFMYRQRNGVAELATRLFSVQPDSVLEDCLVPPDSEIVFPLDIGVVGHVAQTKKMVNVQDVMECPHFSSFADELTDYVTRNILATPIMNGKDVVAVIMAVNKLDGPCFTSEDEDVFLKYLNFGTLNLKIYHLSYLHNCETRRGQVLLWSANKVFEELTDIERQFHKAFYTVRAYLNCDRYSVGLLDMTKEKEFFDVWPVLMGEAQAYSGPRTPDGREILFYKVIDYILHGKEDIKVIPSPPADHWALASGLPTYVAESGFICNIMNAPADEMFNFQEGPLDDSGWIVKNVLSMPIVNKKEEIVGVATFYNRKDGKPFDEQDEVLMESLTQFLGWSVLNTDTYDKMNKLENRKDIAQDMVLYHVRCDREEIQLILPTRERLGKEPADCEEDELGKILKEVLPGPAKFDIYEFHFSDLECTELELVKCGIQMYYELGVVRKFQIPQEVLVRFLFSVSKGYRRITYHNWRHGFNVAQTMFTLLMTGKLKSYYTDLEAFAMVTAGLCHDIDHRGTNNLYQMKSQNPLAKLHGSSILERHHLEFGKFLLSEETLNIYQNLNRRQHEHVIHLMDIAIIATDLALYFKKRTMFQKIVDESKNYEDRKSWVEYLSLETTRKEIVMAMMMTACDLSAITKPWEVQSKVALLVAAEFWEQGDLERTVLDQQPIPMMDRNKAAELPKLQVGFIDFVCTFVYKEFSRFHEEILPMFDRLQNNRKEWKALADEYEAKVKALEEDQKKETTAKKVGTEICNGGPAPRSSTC
Briefly: PDE6 enzyme assay. Type of assay: biochemical.

In assay [5] the target is PDE7 purified from Hut78 human T cells (Homo sapiens, UniProt Q13946). Briefly: PDE7 enzyme assay. It counts as biochemical. The note with it: 10 nM cAMP. The method, then:
PDE7 is a cAMP-selective PDE expressed mainly in T cells and in skeletal muscle. T cell-derived cytokines such as IL-2 and IFN-γ are potentially regulatable via PDE7 inhibition. […] Compounds were tested against the PDE7 preparation in the presence of 10 nM cAMP as described for PDE4 in Table 1.

In assay [6] the test system is CD11b expression on neutrophils. Briefly: fMLF-induced CD11b expression on neutrophils. The note with it: Neutrophil; human neutrophils, 30 nM fMLF. Type of assay: cell-based. The method, then: CD18/CD11b (Mac-1) expression on neutrophils was measured as previously described (Derian et al., 1995, J. Immunol., 154:308-3 17) with the following modifications. Neutrophils were isolated as described above, then resuspended in complete medium at 1×10^6 cells/ml, pretreated with compounds at 10, 1, 0.1, 0.01, and 0 μM in duplicate at a final DMSO concentration of 0.1% for 10 minutes at 37° C. 5% CO2. Cells were then stimulated with 30 nM fMLF for 30 minutes and then chilled to 4° C. Cells were treated with rabbit IgG (Jackson ImmunoResearch Labs, West Grove, Pa., USA) (10 μg/1×10^6 cells) to block Fc receptors, stained with CD18-FITC and CD11b-PE (Becton Dickinson), and analyzed by flow cytometry on a FACSCalibur. CD18/CD11b expression (mean fluorescence) in the absence of stimulation was subtracted from all samples to obtain inhibition curves and calculate IC50 values.

For orientation: IC50 means the concentration needed to halve the response being measured.

Sequence of PDE7 purified from Hut78 human T cells (Q13946 whole entry): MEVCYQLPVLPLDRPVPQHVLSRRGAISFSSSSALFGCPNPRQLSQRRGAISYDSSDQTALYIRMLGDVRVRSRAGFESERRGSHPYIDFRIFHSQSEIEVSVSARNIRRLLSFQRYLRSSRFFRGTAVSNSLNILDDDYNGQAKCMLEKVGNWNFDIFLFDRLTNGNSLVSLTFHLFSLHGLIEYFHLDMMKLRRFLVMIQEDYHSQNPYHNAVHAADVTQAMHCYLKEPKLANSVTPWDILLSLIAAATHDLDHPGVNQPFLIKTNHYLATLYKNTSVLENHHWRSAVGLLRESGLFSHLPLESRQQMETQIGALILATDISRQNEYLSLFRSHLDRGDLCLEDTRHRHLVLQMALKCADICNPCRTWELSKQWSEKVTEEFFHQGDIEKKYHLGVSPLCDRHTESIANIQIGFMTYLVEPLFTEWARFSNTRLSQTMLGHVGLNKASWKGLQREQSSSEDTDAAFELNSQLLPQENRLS

`CCOc1cc(C(CS(C)(=O)=O)N2C(=O)c3cccc(NC(C)=O)c3C2=O)ccc1OC` (single isomer, unassigned; (+)) [Compound A, (+)-2-[1-(3-ethoxy-4-methoxyphenyl)-2-methylsulfonylethyl]-4-acetylaminoisoindoline-1,3-dione]: the IC50 in assay [1] came to 0.0735 µM; in assay [5] it was 20.5 µM; in assay [6], 0.074 µM. The “PDE1 (% inhib at 10 μM)” value in assay [2] (10 μM) is on record as 23%. Besides, the “PDE Specificity Ratio PDE4/PDE1” value in assay [2] (from Table 1 data) is over 500 fold. In addition, the “PDE Specificity Ratio PDE4/PDE2” value in assay [3] (from Table 1 data) was over 10000 fold. Further, the figures for the inhibition at 10 µM in assay [3] (read-out: PDE2 (% inhib at 10 μM)) and in assay [4] (read-out: PDE6 (% inhib at 10 μM)) were 6% and -6%, respectively. Further, in assay [4] (from Table 1 data), the “PDE Specificity Ratio PDE4/PDE6” value is given as over 40000 fold.
